From the supplement of paper PMC10307832

Legend:
Experiment in all cases: relative viability (nuclei count vs DMSO), 5 days (fraction); higher = more cells survive
NCI-H441 = tested on: NCI-H441
Method in brief: (§1)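 Cells from lung cancer lines were seeded into 1536-well plates and, one day later, dosed by pin tool. Treatments were either a single drug or a fixed dose of an anchor drug with five library-drug doses (not always all listed) in √10 steps. After 5 days, nuclei were stained in a one-step fixation (final 0.05% Triton X-100, 1% formaldehyde, 1 ug/ml Hoechst) and counted on 4× images, and relative viability is the treated-to-vehicle nuclei ratio, as the median of duplicate plates.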

NCI-H1355 = tested on: NCI-H1355
Method in brief: as §1

NCI-H1975 = tested on: NCI-H1975
Method in brief: as §1

LOU-NH91 = tested on: LOU-NH91
Method in brief: as §1

HCC-366 = tested on: HCC-366
Method in brief: as §1

NCI-H838 = tested on: NCI-H838
Method in brief: as §1

NCI-H2023 = tested on: NCI-H2023
Method in brief: as §1

NCI-H1734 = tested on: NCI-H1734
Method in brief: as §1

COR-L23 = tested on: COR-L23
Method in brief: as §1

LU99A = tested on: LU99A
Method in brief: as §1

NCI-H460 = tested on: NCI-H460
Method in brief: as §1

NCI-H1793 = tested on: NCI-H1793
Method in brief: as §1

CAL-12T = tested on: CAL-12T
Method in brief: as §1

NCI-H1650 = tested on: NCI-H1650
Method in brief: as §1

NCI-H1651 = tested on: NCI-H1651
Method in brief: as §1

BEN = tested on: BEN
Method in brief: as §1

SK-LU-1 = tested on: SK-LU-1
Method in brief: as §1

NCI-H1437 = tested on: NCI-H1437
Method in brief: as §1

NCI-H2085 = tested on: NCI-H2085
Method in brief: as §1

`CC(=O)O[C@@]12CO[C@@H]1C[C@H](O)[C@@]1(C)C(=O)[C@H](O)C3=C(C)[C@@H](OC(=O)[C@H](O)[C@@H](NC(=O)OC(C)(C)C)c4ccccc4)C[C@@](O)([C@@H](OC(=O)c4ccccc4)[C@H]21)C3(C)C` [Docetaxel] + CC1(C)CCC(c2ccc(Cl)cc2)=C(CN2CCN(c3ccc(C(=O)NS(=O)(=O)c4ccc(N[C@H](CCN5CCOCC5)CSc5ccccc5)c(S(=O)(=O)C(F)(F)F)c4)cc3)CC2)C1 [Navitoclax] (partner 0.5 µM) was tested, and the relative viability (NCI-H441; first compound 0.0002 µM) was 0.486, the relative viability (NCI-H441; first compound 0.000632 µM) was 0.275 and the relative viability (NCI-H441; first compound 0.002 µM) was 0.204. For the same compound, the relative viability (NCI-H441; first compound 0.006325 µM) was 0.23, the relative viability (NCI-H441; first compound 0.02 µM) was 0.13 and the relative viability (NCI-H1355; first compound 0.0002 µM) was 0.901. It also gave a relative viability (NCI-H1355; first compound 0.000632 µM) of 0.77, a relative viability (NCI-H1355; first compound 0.002 µM) of 0.372 and a relative viability (NCI-H1355; first compound 0.006325 µM) of 0.272. For the same compound, the relative viability (NCI-H1355; first compound 0.02 µM) was 0.175, the relative viability (NCI-H1975; first compound 0.0002 µM) was 1.1 and the relative viability (NCI-H1975; first compound 0.000632 µM) was 1.11. It also gave a relative viability (NCI-H1975; first compound 0.002 µM) of 0.276, a relative viability (NCI-H1975; first compound 0.006325 µM) of 0.252 and a relative viability (NCI-H1975; first compound 0.02 µM) of 0.156. It also gave a relative viability (LOU-NH91; first compound 0.0002 µM) of 0.784, a relative viability (LOU-NH91; first compound 0.000632 µM) of 0.512 and a relative viability (LOU-NH91; first compound 0.002 µM) of 0.332. For the same compound, the relative viability (LOU-NH91; first compound 0.006325 µM) was 0.279, the relative viability (LOU-NH91; first compound 0.02 µM) was 0.222 and the relative viability (HCC-366; first compound 0.0002 µM) was 1.03. The relative viability (HCC-366; first compound 0.000632 µM) was 0.969, the relative viability (HCC-366; first compound 0.002 µM) was 0.0411 and the relative viability (HCC-366; first compound 0.006325 µM) was 0.0211. It also gave a relative viability (HCC-366; first compound 0.02 µM) of 0.0135, a relative viability (NCI-H838; first compound 0.0002 µM) of 1.15 and a relative viability (NCI-H838; first compound 0.000632 µM) of 1.22. It also gave a relative viability (NCI-H838; first compound 0.002 µM) of 0.29, a relative viability (NCI-H838; first compound 0.006325 µM) of 0.176 and a relative viability (NCI-H838; first compound 0.02 µM) of 0.135. It also gave a relative viability (NCI-H2023; first compound 0.0002 µM) of 1.01, a relative viability (NCI-H2023; first compound 0.000632 µM) of 0.995 and a relative viability (NCI-H2023; first compound 0.002 µM) of 0.176. It also gave a relative viability (NCI-H2023; first compound 0.006325 µM) of 0.168, a relative viability (NCI-H2023; first compound 0.02 µM) of 0.0908 and a relative viability (NCI-H1734; first compound 0.0002 µM) of 0.697. The relative viability (NCI-H1734; first compound 0.000632 µM) was 0.819, the relative viability (NCI-H1734; first compound 0.002 µM) was 0.323 and the relative viability (NCI-H1734; first compound 0.02 µM) was 0.104. For the same compound, the relative viability (COR-L23; first compound 0.0002 µM) was 0.899, the relative viability (COR-L23; first compound 0.000632 µM) was 0.939 and the relative viability (COR-L23; first compound 0.002 µM) was 0.373. The relative viability (COR-L23; first compound 0.006325 µM) was 0.0756, the relative viability (COR-L23; first compound 0.02 µM) was 0.0656 and the relative viability (LU99A; first compound 0.0002 µM) was 0.865. For the same compound, the relative viability (LU99A; first compound 0.000632 µM) was 0.533, the relative viability (LU99A; first compound 0.002 µM) was 0.277 and the relative viability (LU99A; first compound 0.006325 µM) was 0.201. It also gave a relative viability (LU99A; first compound 0.02 µM) of 0.148, a relative viability (NCI-H460; first compound 0.0002 µM) of 0.997 and a relative viability (NCI-H460; first compound 0.000632 µM) of 0.219. For the same compound, the relative viability (NCI-H460; first compound 0.002 µM) was 0.0187, the relative viability (NCI-H460; first compound 0.006325 µM) was 0.0123 and the relative viability (NCI-H460; first compound 0.02 µM) was 0.0104. It also gave a relative viability (NCI-H1793; first compound 0.0002 µM) of 0.337, a relative viability (NCI-H1793; first compound 0.000632 µM) of 0.432 and a relative viability (NCI-H1793; first compound 0.002 µM) of 0.292. For the same compound, the relative viability (NCI-H1793; first compound 0.006325 µM) was 0.228, the relative viability (NCI-H1793; first compound 0.02 µM) was 0.131 and the relative viability (CAL-12T; first compound 0.0002 µM) was 1.02. It also gave a relative viability (CAL-12T; first compound 0.000632 µM) of 0.694, a relative viability (CAL-12T; first compound 0.002 µM) of 0.178 and a relative viability (CAL-12T; first compound 0.02 µM) of 0.101. The relative viability (NCI-H1650; first compound 0.0002 µM) was 1.13, the relative viability (NCI-H1650; first compound 0.000632 µM) was 1.02 and the relative viability (NCI-H1650; first compound 0.002 µM) was 0.182. The relative viability (NCI-H1650; first compound 0.006325 µM) was 0.19, the relative viability (NCI-H1650; first compound 0.02 µM) was 0.104 and the relative viability (NCI-H1651; first compound 0.0002 µM) was 1.18. The relative viability (NCI-H1651; first compound 0.000632 µM) was 0.968, the relative viability (NCI-H1651; first compound 0.002 µM) was 0.233 and the relative viability (NCI-H1651; first compound 0.006325 µM) was 0.0921. For the same compound, the relative viability (NCI-H1651; first compound 0.02 µM) was 0.0627, the relative viability (BEN; first compound 0.0002 µM) was 0.0647 and the relative viability (BEN; first compound 0.000632 µM) was 0.25. For the same compound, the relative viability (BEN; first compound 0.002 µM) was 0.0618, the relative viability (BEN; first compound 0.006325 µM) was 0.0423 and the relative viability (BEN; first compound 0.02 µM) was 0.0454. For the same compound, the relative viability (SK-LU-1; first compound 0.0002 µM) was 0.721, the relative viability (SK-LU-1; first compound 0.000632 µM) was 0.454 and the relative viability (SK-LU-1; first compound 0.002 µM) was 0.141. It also gave a relative viability (SK-LU-1; first compound 0.006325 µM) of 0.215, a relative viability (SK-LU-1; first compound 0.02 µM) of 0.112 and a relative viability (NCI-H1437; first compound 0.0002 µM) of 1.02. For the same compound, the relative viability (NCI-H1437; first compound 0.000632 µM) was 0.644, the relative viability (NCI-H1437; first compound 0.002 µM) was 0.182 and the relative viability (NCI-H1437; first compound 0.02 µM) was 0.104. The relative viability (NCI-H2085; first compound 0.0002 µM) was 1.05, the relative viability (NCI-H2085; first compound 0.000632 µM) was 1.03 and the relative viability (NCI-H2085; first compound 0.002 µM) was 0.68. It also gave a relative viability (NCI-H2085; first compound 0.006325 µM) of 0.476 and a relative viability (NCI-H2085; first compound 0.02 µM) of 0.232.
